Our source for the MIC values is US4755610A, “Hapalindoles” (priority 1986, dated 1988).

Holding throughout (format): cell-based
The test system of test [1] is Staphylococcus aureus X1.1. Description: In vitro antibacterial activity, standard agar-dilution assay.
Test [2] relates to Staphylococcus aureus V41. Described as above.
Test [3] deals with Staphylococcus aureus X400. Description: microbe, parasite or virus in culture.
Test [4] deals with Staphylococcus aureus S13E. Description: microbe, parasite or virus in culture.
In test [5] the test system is Staphylococcus epidermidis EPI1. Description: In vitro antibacterial activity, standard agar-dilution assay.
The subject of test [6] is Staphylococcus epidermidis 222. The description is as above.
The test system of test [7] is Streptococcus pyogenes C203. The test is described as above.
Test [8] has as its system Streptococcus pneumoniae Park 1. Described as above. Conditions: PARK1.
The test system of test [9] is Streptococcus faecium ATCC 9790. Described as above. Conditions: Enterococcus faecium, ATCC9790.
Test [10] has as its system Streptococcus sp group D 2041. The description is as above. As to conditions: GROUPD2041.
In test [11] the test system is Haemophilus influenzae C.L. The test is described as above.
In test [12] the test system is Haemophilus influenzae 76. Described as above.
Another test deals with Escherichia coli N10. Described as above.
In the next test the test system is Escherichia coli EC14. The description is as above.
The subject of another test is Escherichia coli TEM. The description is as above.
In test [13] the test system is Klebsiella pneumoniae X26. The description is as above.
The subject of test [14] is Klebsiella pneumoniae X68. The test is described as above.
Test [15] deals with Klebsiella pneumoniae KAE. Described as above.
The test system of another test is Salmonella sp. X514. The description is as above.
Another test deals with Shigella sonnei N9. The description is as above.
In another test the test system is Proteus morganii PR15. Described as above. Conditions: Morganella morganii.
The subject of test [16] is Acinetobacter calcoaceticus AC12. Described as above.
For the next test, the system named is Candida albicans. Description: In vitro antifungal activity, standard disc-plate assay.
Test [17] concerns Trichophyton mentagrophytes. The test is described as above.
Setting [18] is: Staphylococcus aureus X1.1, agar dilution, read-out: MIC.
[19] abbreviates: Staphylococcus aureus V41, agar dilution, read-out: MIC.
The mark [20] stands for this setting: Staphylococcus epidermidis EPI1, agar dilution, read-out: MIC.
The mark [21] stands for this setting: Staphylococcus epidermidis 222, agar dilution, read-out: MIC.
Where [22] appears, read: Streptococcus pyogenes C203, agar dilution, read-out: MIC.
[23] abbreviates: Streptococcus pneumoniae Park 1, agar dilution, read-out: MIC.
Where [24] appears, read: Streptococcus faecium ATCC 9790, agar dilution, read-out: MIC.
Where [25] appears, read: Streptococcus sp group D 2041, agar dilution, read-out: MIC.
Where [26] appears, read: Haemophilus influenzae C.L., agar dilution, read-out: MIC.
Setting [27] is: Haemophilus influenzae 76, agar dilution, read-out: MIC.
Where [28] appears, read: Escherichia coli N10, agar dilution, read-out: MIC.
[29] abbreviates: Escherichia coli EC14, agar dilution, read-out: MIC.
[30] abbreviates: Klebsiella pneumoniae X26, agar dilution, read-out: MIC.
Setting [31] is: Klebsiella pneumoniae X68, agar dilution, read-out: MIC.
Where [32] appears, read: Klebsiella pneumoniae KAE, agar dilution, read-out: MIC.
Where [33] appears, read: Salmonella sp. X514, agar dilution, read-out: MIC.
Setting [34] is: Shigella sonnei N9, agar dilution, read-out: MIC.
Where [35] appears, read: Proteus morganii PR15, agar dilution, read-out: MIC.
Where [36] appears, read: Acinetobacter calcoaceticus AC12, agar dilution, read-out: MIC.
[37] abbreviates: disc-plate assay, read-out: MIC.

In brackets after ≈: the same amount, converted by molar mass. Where two headings read alike, the source gives them in different places.

Consider `C=C[C@@]1(C)CC[C@H](C(=C)C)[C@@H](c2c[nH]c3ccccc23)[C@H]1N=C=S` [Compound 4, Hapalindole D], for which the MIC was found to be 4 µg/mL (≈ 11.9 µM) in test [1] (setting [18]); 4 µg/mL (≈ 11.9 µM) in [2] (setting [19]); 8 µg/mL (≈ 23.8 µM) in test [3]; 4 µg/mL (≈ 11.9 µM) in [4]; 8 µg/mL (≈ 23.8 µM) in [5] (setting [20]); 4 µg/mL (≈ 11.9 µM) in [6] (setting [21]). For the same molecule, the MIC in test [7] (setting [22]) is over 64 µg/mL; in test [8] (setting [23]), over 64 µg/mL; in [9] (setting [24]) it was 8 µg/mL (≈ 23.8 µM); in [10] (setting [25]), 8 µg/mL (≈ 23.8 µM); in test [11] (setting [26]), over 64 µg/mL; in test [12] (setting [27]) it was over 64 µg/mL. The MIC (with Escherichia coli N10 (setting [28]); in the test with Escherichia coli EC14 (setting [29]); against Escherichia coli TEM; in test [13] (setting [30]); in test [14] (setting [31]); in [15] (setting [32])) was over 64 µg/mL throughout. Besides, the MIC was over 64 µg/mL with Salmonella sp. X514 (setting [33]); over 64 µg/mL with Shigella sonnei N9 (setting [34]); over 64 µg/mL in the test with Proteus morganii PR15 (setting [35]); over 64 µg/mL in test [16] (setting [36]); over 20 µg/mL with Candida albicans (setting [37]); over 20 µg/mL in test [17] (setting [37]).

`[C-]#[N+][C@@H]1[C@H](c2c[nH]c3ccccc23)[C@@H](C(=C)C)C[C@@H](Cl)[C@]1(C)C=C` [Compound 5, Hapalindole E]: the MIC in test [1] (Staphylococcus aureus, X1.1) came to 4 µg/mL (≈ 11.8 µM); in test [2] (Staphylococcus aureus, V41) it was 2 µg/mL (≈ 5.9 µM); in test [3] it was 4 µg/mL (≈ 11.8 µM); in test [4], 2 µg/mL (≈ 5.9 µM); in test [5] (Staphylococcus epidermidis, EPI1), 2 µg/mL (≈ 5.9 µM); in test [6] (Staphylococcus epidermidis, 222), 2 µg/mL (≈ 5.9 µM). The MIC in [7] (Streptococcus pyogenes, C203) was over 64 µg/mL; in [8] (Streptococcus pneumoniae), over 64 µg/mL; in [9], 64 µg/mL (≈ 189 µM); in test [10] (Streptococcus) it was over 64 µg/mL; in [11] (Haemophilus influenzae), 4 µg/mL (≈ 11.8 µM); in test [12] (Haemophilus influenzae, 76), 4 µg/mL (≈ 11.8 µM). Further, the MIC against Escherichia coli N10 (Escherichia coli, N10) is 16 µg/mL (≈ 47.2 µM); against Escherichia coli EC14 (Escherichia coli, EC14), 16 µg/mL (≈ 47.2 µM); against Escherichia coli TEM, over 64 µg/mL; in test [13] (Klebsiella pneumoniae, X26), over 64 µg/mL; in test [14] (Klebsiella pneumoniae, X68) it was over 64 µg/mL; in test [15] (Klebsiella pneumoniae), over 64 µg/mL. The MIC was over 64 µg/mL with Salmonella sp. X514 (Salmonella, SP.X514); over 64 µg/mL in the test with Shigella sonnei N9 (Shigella sonnei, N9); 32 µg/mL (≈ 94.4 µM) in the test with Proteus morganii PR15 (PR15); over 64 µg/mL in test [16] (Acinetobacter calcoaceticus, AC12); 0.312 µg/mL (≈ 0.921 µM) in the test on Candida albicans; 0.625 µg/mL (≈ 1.84 µM) in test [17].

For `C=C[C@@]1(C)[C@H](Cl)C[C@H](C(=C)C)[C@@H](c2c[nH]c3ccccc23)[C@H]1N=C=S` [Compound 6, Hapalindole F], the MIC is 16 µg/mL (≈ 43.1 µM) in [1] (setting [18]); over 64 µg/mL in test [2] (setting [19]); 32 µg/mL (≈ 86.3 µM) in test [3]; 32 µg/mL (≈ 86.3 µM) in test [4]; 4 µg/mL (≈ 10.8 µM) in test [5] (setting [20]); 4 µg/mL (≈ 10.8 µM) in test [6] (setting [21]). Moreover, the MIC in [7] (setting [22]) is over 64 µg/mL; in test [8] (setting [23]), over 64 µg/mL; in test [9] (setting [24]) it was 64 µg/mL (≈ 173 µM); in test [10] (setting [25]), 16 µg/mL (≈ 43.1 µM); in test [11] (setting [26]), over 64 µg/mL; in test [12] (setting [27]), over 64 µg/mL. Moreover, the MIC (in the test on Escherichia coli N10 (setting [28]); in the test on Escherichia coli EC14 (setting [29]); with Escherichia coli TEM; in test [13] (setting [30]); in test [14] (setting [31]); in test [15] (setting [32])) was over 64 µg/mL in each case. For the same molecule, the MIC in the test on Salmonella sp. X514 (setting [33]) is over 64 µg/mL; in the test on Shigella sonnei N9 (setting [34]), over 64 µg/mL; with Proteus morganii PR15 (setting [35]) it was over 64 µg/mL; in test [16] (setting [36]), over 64 µg/mL; with Candida albicans (setting [37]) it was over 20 µg/mL; in [17] (setting [37]), over 20 µg/mL.

Regarding `[C-]#[N+][C@@H]1[C@@H]2c3c[nH]c4cccc(c34)C(C)(C)[C@H]2C[C@@H](Cl)[C@]1(C)C=C` [Compound 7, Hapalindole G], the MIC turned out to be 64 µg/mL (≈ 189 µM) in [1] (setting [18]); 64 µg/mL (≈ 189 µM) in test [2] (setting [19]); 64 µg/mL (≈ 189 µM) in test [3]; 64 µg/mL (≈ 189 µM) in [4]; 8 µg/mL (≈ 23.6 µM) in [5] (setting [20]); 16 µg/mL (≈ 47.2 µM) in test [6] (setting [21]). Besides, the MIC in test [7] (setting [22]) is 16 µg/mL (≈ 47.2 µM); in test [8] (setting [23]) it was 16 µg/mL (≈ 47.2 µM); in [9] (setting [24]) it was over 64 µg/mL; in test [10] (setting [25]), over 64 µg/mL; in test [11] (setting [26]) it was 64 µg/mL (≈ 189 µM); in test [12] (setting [27]), 64 µg/mL (≈ 189 µM). In addition, the MIC in the test with Escherichia coli N10 (setting [28]) is over 64 µg/mL; in the test with Escherichia coli EC14 (setting [29]), over 64 µg/mL; against Escherichia coli TEM, over 64 µg/mL; in [13] (setting [30]), 64 µg/mL (≈ 189 µM); in test [14] (setting [31]) it was over 64 µg/mL; in test [15] (setting [32]), over 64 µg/mL. Further, the MIC with Salmonella sp. X514 (setting [33]) is over 64 µg/mL; with Shigella sonnei N9 (setting [34]) it was over 64 µg/mL; with Proteus morganii PR15 (setting [35]) it was over 64 µg/mL; in test [16] (setting [36]) it was 16 µg/mL (≈ 47.2 µM); with Candida albicans (setting [37]), 10 µg/mL (≈ 29.5 µM); in test [17] (setting [37]), 2.5 µg/mL (≈ 7.38 µM).
